Reference: PubChem BioAssay (NCI)
Values joined by “and” are separate entries in the source; they are usually repeats but may differ in a detail not shown here. Equal entries are not always repeated.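 Grown in 96-well plates, cells were treated for 48 hours with each compound at five concentrations. Insufficient inhibition: endpoint recorded as highest concentration tested. GI50 is the concentration that inhibits growth by half. Definition used: TGI = concentration required for complete inhibition of growth.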

Assays:
Assay in all cases: inhibition of tumour cell growth, NCI panel, 48 h
ACHN renal = system: ACHN renal
HCC-2998 colon = system: HCC-2998 colon
HCT-116 colon = system: HCT-116 colon
HS 578T breast = system: HS 578T breast
HT29 colon = system: HT29 colon
NCI-H226 lung = system: NCI-H226 lung
NCI/ADR-RES ovarian = system: NCI/ADR-RES ovarian
SNB-75 CNS = system: SNB-75 CNS
T-47D breast = system: T-47D breast
U251 CNS = system: U251 CNS

| SMILES | GI50 (ACHN renal) | TGI (ACHN renal) [µM] | GI50 (HCC-2998 colon) [µM] | TGI (HCC-2998 colon) [µM] | GI50 (HCT-116 colon) | TGI (HCT-116 colon) | GI50 (HS 578T breast) | TGI (HS 578T breast) | GI50 (HT29 colon) | TGI (HT29 colon) [µM] | GI50 (NCI-H226 lung) | TGI (NCI-H226 lung) [µM] | GI50 (NCI/ADR-RES ovarian) | TGI (NCI/ADR-RES ovarian) | GI50 (SNB-75 CNS) | TGI (SNB-75 CNS) [µM] | GI50 (T-47D breast) | TGI (T-47D breast) [µM] | GI50 (U251 CNS) | TGI (U251 CNS) [µM] |
| --- | --- | --- | --- | --- | --- | --- | --- | --- | --- | --- | --- | --- | --- | --- | --- | --- | --- | --- | --- | --- |
| O=C(Nc1cccc([N+](=O)[O-])c1)c1cc2ccccc2cc1O | 2.03 µM | 7.79 | 2.16 | 6.11 | 0.772 µM | 3.17 µM | 1.24 µM | 10.4 µM | 3.09 µM | > 30.7 | 1.87 µM | 7.43 | 1.76 µM | 6.54 µM | 2.84 µM | 55.2 | 2.47 µM | 7.88 | 1.48 µM | 9.27 |
| C[C@]12CC[C@H]3[C@@H](CCC4=C[C@@H](OC5OCC(OC6OC(CO)C(O)C(O)C6O)C(O)C5O)CC[C@@]43C=O)[C@@]1(O)CCC2C1=CC(=O)OC1 (stereo not given in full) | – | 2.25 | – | 1.38 | – | 1.25 µM | – | > 100 µM | – | 5.35 | – | 5.79 | – | 3.28 µM | – | 12.8 | – | > 24.8 | – | 8.84 |
| CN1N=Nc2c(C(F)(F)F)nn(-c3ccccc3)c2N(C)C1=O | > 100 µM | > 100 | > 100 | > 100 | > 100 µM | > 100 µM | > 100 µM | > 100 µM | > 100 µM | > 100 | > 100 µM | > 100 | > 100 µM | > 100 µM | > 100 µM | > 100 | > 100 µM | > 100 | > 100 µM | > 100 |
| Cc1cc(Cl)ccc1NC(=O)NC(C)(C)COC(=O)Nc1cccc(Cl)c1 | 5.6 µM | > 100 | 11.3 | > 100 | 6.3 µM | > 100 µM | 5.65 µM | 39 µM | 7.42 µM | 39.4 | 13.6 µM | > 100 | 4.12 µM | > 100 µM | 11.3 µM | 47.1 | 5.55 µM | > 100 | 4.56 µM | 19.3 |
| N#Cc1ncc(N2C(=O)C3(CCC3)N(c3ccc(OC4CCNCC4)nc3)C2=S)cc1C(F)(F)F | 17.7 µM | 32 | 15.6 | 31.2 | 11.7 µM | 24.4 µM | 15.9 µM | 41.5 µM | 8.92 µM | 29.9 | 15.7 µM | 34 | 25.2 µM | 81.9 µM | 15.4 µM | 50.1 | 12.2 µM | 49.6 | 20.2 µM | 48.7 |
| O=C(Nc1ccccc1C(=O)Nc1nccs1)c1ccccc1 | – | > 100 | – | > 100 | – | > 100 µM | – | > 100 µM | – | > 100 | – | > 100 | – | > 100 µM | – | > 100 | – | 56.4 | – | > 100 |
| C=C1C[C@@H]2[C@H](CC[C@]3(C)C(=O)CC[C@@H]23)[C@@]2(C)C=CC(=O)C=C12 | 23.5 µM | 54.3 | 18.1 | 33.5 | 14.7 µM | 29.9 µM | 25.1 µM | > 77.2 µM | 37.1 µM | > 100 | 20.2 µM | > 60 | 30.6 µM | > 92 µM | 30 µM | > 100 | > 51.6 µM | > 100 | 23.5 µM | > 70.5 |
| CC1(C)N=C(N)N=C(N)N1c1ccc(OCCCCNC(=O)c2ccc(S(=O)(=O)F)cc2)c(Cl)c1 | 41.6 µM | > 100 | 35 | > 100 | 3.53 µM | > 100 µM | > 100 µM | > 100 µM | 4.19 µM | > 100 | 76 µM | > 100 | > 100 µM | > 100 µM | 16.5 µM | > 100 | > 100 µM | > 100 | 5.65 µM | > 100 |
| Cc1c(N)nc(C(CC(N)=O)NCC(N)C(N)=O)nc1C(=O)NC(C(=O)NC(C)C(O)C(C)C(=O)NC(C(=O)NCCc1nc(-c2nc(C(=O)NCCCNCCCCN)cs2)cs1)C(C)O)C(OC1OC(CO)C(O)C(O)C1OC1OC(CO)C(O)C(OC(N)=O)C1O)c1cnc[nH]1 (stereo not given) | 0.182 µg/mL and 0.0425 µg/mL | – | – | > 10 | 0.288 µg/mL and 1.04 µg/mL | 26.8 µg/mL and > 10 µM | 5.69 µg/mL and 0.24 µg/mL | 38.4 µg/mL | 50.8 µg/mL | > 10 | 9.65 µg/mL and 3.45 µg/mL | – | 3.44 µg/mL and 1.4 µg/mL | 17 µg/mL | 8.83 µg/mL and 3.08 µg/mL | – | 16.5 µg/mL | – | 8.06 µg/mL | > 10 |
| COc1cc(/C=C/c2cc(/C=C/c3ccc(O)c(OC)c3)[nH]c(=O)n2)ccc1O | 8.84 µM | > 100 | 3.55 | 14.3 | 2.48 µM | 12.4 µM | 1.8 µM | 6.75 µM | 1.3 µM | 2.67 | 3.48 µM | 22.5 | 16.7 µM | > 100 µM | 1.72 µM | 12 | 6.5 µM | 36.9 | 3.15 µM | 13.5 |
